Test results as given in patent US20120029187A1, “HALOALKYLSULFONANILIDE DERIVATIVE” (Nissan Chemical Industries, Ltd., priority 2009, published 2012).

Key:
Assay type in all cases: in vivo
ducksalad [1] = assay: Test Example 2: herbicidal effects during the vegetation period under submerged conditions; conditions: treatment during the vegetation period under submerged conditions; dose 2.52 g/a
Method in brief: (§1)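 Barnyardgrass, bulrush and ducksalad were co-sown in alluvial soil flooded to 4 cm and grown in a greenhouse at 25 to 30° C. At the 1- or 2-leaf stage, water-diluted emulsifiable concentrates went onto the water surface at set doses (g/a). Herbicidal effect was scored three weeks later on a graded scale.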

bulrush [2] = assay: as above; conditions: treatment during the vegetation period under submerged conditions; dose 2.52 g/a
Method in brief: as §1

barnyardgrass [3] = assay: as above; conditions: treatment during the vegetation period under submerged conditions; dose 2.52 g/a
Method in brief: as §1

water foxtail [4] = assay: Test Example 4: herbicidal effect in foliage treatment; conditions: dose 3.2 g/a, three weeks after application
Method in brief: (§2)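 A uniform foliar spray of emulsifiable concentrate, diluted with water to give the stated g/a dose, was applied to plants raised for 14 days from seed in sterilized diluvial soil at 25 to 30° C. Herbicidal effects were scored three weeks later.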

giant foxtail [5] = assay: as above; conditions: dose 3.2 g/a, three weeks after application
Method in brief: as §2

Italian ryegrass [6] = assay: as above; conditions: dose 3.2 g/a, three weeks after application
Method in brief: as §2

beadstraw [7] = assay: as above; conditions: dose 3.2 g/a, three weeks after application
Method in brief: as §2

redroot pigweed [8] = assay: as above; conditions: dose 3.2 g/a, three weeks after application
Method in brief: as §2

large crabgrass [9] = assay: as above; conditions: dose 3.2 g/a, three weeks after application
Method in brief: as §2

posumbu knotweed [10] = assay: as above; conditions: dose 3.2 g/a, three weeks after application
Method in brief: as §2

common ragweed [11] = assay: as above; conditions: dose 3.2 g/a, three weeks after application
Method in brief: as §2

barnyardgrass [12] = assay: as above; conditions: dose 3.2 g/a, three weeks after application
Method in brief: as §2

velvetleaf [13] = assay: as above; conditions: dose 3.2 g/a, three weeks after application
Method in brief: as §2

common lambsquater [14] = assay: as above; conditions: dose 3.2 g/a, three weeks after application
Method in brief: as §2

common chickweed [15] = assay: as above; conditions: dose 3.2 g/a, three weeks after application
Method in brief: as §2

transplanted rice = assay: Test Example 1: preemergence treatment under submerged conditions, effect on crop; conditions: dose 2.52 g/a
Method in brief: (§3)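 Submerged conditions, 4 cm water over alluvial soil. Weeds sown and 2.5-leaf rice transplanted; compound applied preemergence to water surface, doses in g per are. Greenhouse, 25 to 30° C., three weeks, then 0–5 mortality rating.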

water foxtail [16] = assay: Test Example 3: herbicidal effects in soil treatment; conditions: dose 3.2 g/a
Method in brief: (§4)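 Seeds were sown in sterilized diluvial soil and covered with about 1.5 cm of soil. Compounds, formulated as emulsifiable concentrates and diluted with water, were sprayed evenly over the soil surface at set doses in g/a. Herbicidal effect was scored on a rating scale three weeks later.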

giant foxtail [17] = assay: as above; conditions: dose 3.2 g/a
Method in brief: as §4

Italian ryegrass [18] = assay: as above; conditions: dose 3.2 g/a
Method in brief: as §4

beadstraw [19] = assay: as above; conditions: dose 3.2 g/a
Method in brief: as §4

redroot pigweed [20] = assay: as above; conditions: dose 3.2 g/a
Method in brief: as §4

large crabgrass [21] = assay: as above; conditions: dose 3.2 g/a
Method in brief: as §4

posumbu knotweed [22] = assay: as above; conditions: dose 3.2 g/a
Method in brief: as §4

common ragweed [23] = assay: as above; conditions: dose 3.2 g/a
Method in brief: as §4

barnyardgrass [24] = assay: as above; conditions: dose 3.2 g/a
Method in brief: as §4

velvetleaf [25] = assay: as above; conditions: dose 3.2 g/a
Method in brief: as §4

common lambsquater [26] = assay: as above; conditions: dose 3.2 g/a
Method in brief: as §4

common chickweed [27] = assay: as above; conditions: dose 3.2 g/a
Method in brief: as §4

ducksalad [28] = assay: Test Example 1: herbicidal effects in preemergence treatment under submerged conditions; conditions: dose 2.52 g/a
Method in brief: as §3

bulrush [29] = assay: as above; conditions: dose 2.52 g/a
Method in brief: as §3

barnyardgrass [30] = assay: as above; conditions: dose 2.52 g/a
Method in brief: as §3

| Structure (SMILES) | C: ducksalad, herbicidal effect (evaluation scale 0-5) (ducksalad [1]) | B: bulrush, herbicidal effect (evaluation scale 0-5) (bulrush [2]) | A: barnyardgrass, herbicidal effect (evaluation scale 0-5) (barnyardgrass [3]) | G: water foxtail, herbicidal effect (water foxtail [4]) | E: giant foxtail, herbicidal effect (giant foxtail [5]) | H: Italian ryegrass, herbicidal effect (Italian ryegrass [6]) | O: beadstraw, herbicidal effect (beadstraw [7]) | K: redroot pigweed, herbicidal effect (redroot pigweed [8]) | D: large crabgrass, herbicidal effect (large crabgrass [9]) | M: posumbu knotweed, herbicidal effect (posumbu knotweed [10]) | J: common ragweed, herbicidal effect (common ragweed [11]) | A: barnyardgrass, herbicidal effect (barnyardgrass [12]) | I: velvetleaf, herbicidal effect (velvetleaf [13]) | L: common lambsquater, herbicidal effect (common lambsquater [14]) | N: common chickweed, herbicidal effect (common chickweed [15]) | a: transplanted rice, effect on crop (evaluation scale 0-5) (transplanted rice) | G: water foxtail, herbicidal effect (evaluation scale 0-5) (water foxtail [16]) | E: giant foxtail, herbicidal effect (evaluation scale 0-5) (giant foxtail [17]) | H: Italian ryegrass, herbicidal effect (evaluation scale 0-5) (Italian ryegrass [18]) | O: beadstraw, herbicidal effect (evaluation scale 0-5) (beadstraw [19]) | further results |
| --- | --- | --- | --- | --- | --- | --- | --- | --- | --- | --- | --- | --- | --- | --- | --- | --- | --- | --- | --- | --- | --- |
| CC1(C)CC(=O)N(Cc2ccccc2N(C(=O)OCCCl)S(=O)(=O)C(F)(F)F)CO1 [II-28] | 5 (mortality of 90% or above (nearly complete death)) | 5 (mortality of 90% or above (nearly complete death)) | 5 (mortality of 90% or above (nearly complete death)) | 5 (mortality of 90% or above (nearly complete death)) | 4 (mortality of at least 70% and less than 90%) | 3 (mortality of at least 40% and less than 70%) | 5 (mortality of 90% or above (nearly complete death)) | 0 (mortality of less than 5% (almost ineffective)) | 4 (mortality of at least 70% and less than 90%) | 4 (mortality of at least 70% and less than 90%) | 3 (mortality of at least 40% and less than 70%) | 5 (mortality of 90% or above (nearly complete death)) | 4 (mortality of at least 70% and less than 90%) | 1 (mortality of at least 5% and less than 20%) | 4 (mortality of at least 70% and less than 90%) | 4 (mortality of at least 70% and less than 90%) | 5 (mortality of 90% or above (nearly complete death)) | 5 (mortality of 90% or above (nearly complete death)) | 2 (mortality of at least 20% and less than 40%) | 5 (mortality of 90% or above (nearly complete death)) | K: redroot pigweed, herbicidal effect (evaluation scale 0-5) (redroot pigweed [20]): 0 (mortality of less than 5% (almost ineffective)); D: large crabgrass, herbicidal effect (evaluation scale 0-5) (large crabgrass [21]): 5 (mortality of 90% or above (nearly complete death)); M: posumbu knotweed, herbicidal effect (evaluation scale 0-5) (posumbu knotweed [22]): 5 (mortality of 90% or above (nearly complete death)); J: common ragweed, herbicidal effect (evaluation scale 0-5) (common ragweed [23]): 4 (mortality of at least 70% and less than 90%); A: barnyardgrass, herbicidal effect (evaluation scale 0-5) (barnyardgrass [24]): 5 (mortality of 90% or above (nearly complete death)); I: velvetleaf, herbicidal effect (evaluation scale 0-5) (velvetleaf [25]): 4 (mortality of at least 70% and less than 90%); L: common lambsquater, herbicidal effect (evaluation scale 0-5) (common lambsquater [26]): 0 (mortality of less than 5% (almost ineffective)); N: common chickweed, herbicidal effect (evaluation scale 0-5) (common chickweed [27]): 4 (mortality of at least 70% and less than 90%); C: ducksalad, herbicidal effect (evaluation scale 0-5) (ducksalad [28]): 5 (mortality of 90% or above (nearly complete death)); B: bulrush, herbicidal effect (evaluation scale 0-5) (bulrush [29]): 5 (mortality of 90% or above (nearly complete death)); A: barnyardgrass, herbicidal effect (evaluation scale 0-5) (barnyardgrass [30]): 5 (mortality of 90% or above (nearly complete death)) |
| O=C1CC2(CCCCC2)OCN1Cc1ccccc1NS(=O)(=O)C(F)(F)F [II-67] | 5 (mortality of 90% or above (nearly complete death)) | 5 (mortality of 90% or above (nearly complete death)) | 5 (mortality of 90% or above (nearly complete death)) | 5 (mortality of 90% or above (nearly complete death)) | 5 (mortality of 90% or above (nearly complete death)) | 2 (mortality of at least 20% and less than 40%) | 3 (mortality of at least 40% and less than 70%) | 0 (mortality of less than 5% (almost ineffective)) | 5 (mortality of 90% or above (nearly complete death)) | 3 (mortality of at least 40% and less than 70%) | 3 (mortality of at least 40% and less than 70%) | 5 (mortality of 90% or above (nearly complete death)) | 5 (mortality of 90% or above (nearly complete death)) | 4 (mortality of at least 70% and less than 90%) | 4 (mortality of at least 70% and less than 90%) | 0 (mortality of less than 5% (almost ineffective)) | 5 (mortality of 90% or above (nearly complete death)) | 5 (mortality of 90% or above (nearly complete death)) | 5 (mortality of 90% or above (nearly complete death)) | 5 (mortality of 90% or above (nearly complete death)) | K: redroot pigweed, herbicidal effect (evaluation scale 0-5) (redroot pigweed [20]): 3 (mortality of at least 40% and less than 70%); D: large crabgrass, herbicidal effect (evaluation scale 0-5) (large crabgrass [21]): 5 (mortality of 90% or above (nearly complete death)); M: posumbu knotweed, herbicidal effect (evaluation scale 0-5) (posumbu knotweed [22]): 5 (mortality of 90% or above (nearly complete death)); J: common ragweed, herbicidal effect (evaluation scale 0-5) (common ragweed [23]): 2 (mortality of at least 20% and less than 40%); A: barnyardgrass, herbicidal effect (evaluation scale 0-5) (barnyardgrass [24]): 5 (mortality of 90% or above (nearly complete death)); I: velvetleaf, herbicidal effect (evaluation scale 0-5) (velvetleaf [25]): 5 (mortality of 90% or above (nearly complete death)); L: common lambsquater, herbicidal effect (evaluation scale 0-5) (common lambsquater [26]): 5 (mortality of 90% or above (nearly complete death)); N: common chickweed, herbicidal effect (evaluation scale 0-5) (common chickweed [27]): 5 (mortality of 90% or above (nearly complete death)); C: ducksalad, herbicidal effect (evaluation scale 0-5) (ducksalad [28]): 5 (mortality of 90% or above (nearly complete death)); B: bulrush, herbicidal effect (evaluation scale 0-5) (bulrush [29]): 5 (mortality of 90% or above (nearly complete death)); A: barnyardgrass, herbicidal effect (evaluation scale 0-5) (barnyardgrass [30]): 5 (mortality of 90% or above (nearly complete death)) |
